“And” between values parts separate entries of the source, which are not always exact repeats. Equal entries are not always repeated.

Data set [1] relates to auricle of hairless mouse (HR-1, female). The experiment in a line: External blood circulation enhancing action: vasodilatory effect (red spots) on auricle of hairless mouse. Details: key to Vasodilatory effect for hairless mouse (red spots, visual): ◯: clear red spots can be confirmed; Δ: weak red spots can be confirmed; x: no development of red spots. It counts as in vivo. The settings on record: for Vasodilatory effect for hairless mouse (red spots, visual): applied to right ear; for Vasodilating effect: 5 wt % solution, solvents as in Tables 2 and 3. The method, then: The compound of each Example and capsaicin analog were compared for vasodilatory effect using auricle of hairless mouse. [Test method] A sample was applied to the right ear of hairless mouse (HR-1, female), and a control was applied to the left ear. Presence or absence of red spots development was visually evaluated, and evaluated according to the following indices. ◯: clear red spots can be confirmed Δ: weak red spots can be confirmed x: no development of red spots The samples were dissolved in liquid paraffin or ethanol. samples: Control: liquid paraffin or ethanol

Data set [2] in a line: Stability on contact with silica gel, yield (recovery rate) of PTLC purification as index. It counts as physicochemical. The method, then: Using vanillyl alcohol (1.70 g, 11.0 mmol) instead of piperonyl alcohol, and n-decanoic acid (1.72 g, 10 mmol) instead of 8-methylnonanoic acid in Example 1, a reaction similar to Example 1 was performed.
Using the yield (recovery rate) of purification by silica gel chromatography (PTLC) as an index, the stability of each Example compound was confirmed.

In the case of `CCC(C)CCCCC(=O)OCc1ccc(OC)cc1` (stereo not shown) [compound C-2, 4-methoxybenzyl 6-methyloctanoate], the “Vasodilatory effect for hairless mouse (red spots, visual)” value (shortened to “Vasodilatory effect for hairless mouse”) in data set [1] (5 wt % in ethanol) and in data set [1] (5 wt % in liquid paraffin) was “x” in each case. In data set [1], the “Vasodilating effect” value is given as “did not show a vasodilating effect”.

For the compound `CCC(C)CCCCCC(=O)OCc1ccc(OC)c(O)c1` (stereo not shown) [compound B-2, Isovanillyl 7-methyl Nonanoate], the “Vasodilatory effect in words” value is recorded as “vasodilatory effect was observed” in data set [1] (5 wt % in ethanol) and “showed a vasodilating effect” in data set [1] (5 wt % in ethanol, listed as Compound B-2). Also, the “Vasodilatory effect for hairless mouse” value in data set [1] (5 wt % in ethanol) is given as “∘”; in data set [1] (5 wt % in liquid paraffin) it was “x”. Also, the “Vasodilatory effect, note in words (onset, duration)” value in data set [1] (5 wt % in liquid paraffin) was “did not show a vasodilating effect”.

Consider `COc1cc(COC(=O)CCCCCCC(C)C)ccc1O` [dihydrocapsiate, 4-hydroxy-3-methoxybenzyl 8-methylnonanoate, reference compound], for which the figures for the “Vasodilatory effect for hairless mouse” value in data set [1] (1 wt % in liquid paraffin) and in data set [1] (5 wt % in liquid paraffin) were “Δ” and “∘”, respectively.

Consider `COc1ccc(COC(=O)CCCCCC(C)C)cc1` [compound C-1, 4-methoxybenzyl 7-methyloctanoate], for which, in data set [1] (5 wt % in liquid paraffin), the “Vasodilatory effect for hairless mouse” value is given as “Δ”. Besides, the “Vasodilating effect” value in data set [1] is listed as “weak vasodilating effect”.

Turning to `COc1cc(COC(=O)CCCC/C=C/C(C)C)ccc1O` [capsiate, 4-hydroxy-3-methoxybenzyl (E)-8-methyl-6-nonenoate, reference compound], the “Vasodilatory effect for hairless mouse” value in data set [1] (1 wt % in liquid paraffin) is reported as “Δ”; in data set [1] (5 wt % in ethanol), “∘”; in data set [1] (5 wt % in liquid paraffin), “∘”.

Regarding `COc1ccc(COC(=O)CCCCCCC(C)C)cc1OC` [compound D, Veratryl 8-methylnonanoate], the “Vasodilatory effect for hairless mouse” value in data set [1] (5 wt % in liquid paraffin) is reported as “x”. Moreover, in data set [1], the “Vasodilating effect” value is reported as “did not show a vasodilating effect”. In data set [2], the “Stability on purification by PTLC (contact with silica gel), in words” value (“Stability on purification by PTLC” below) is reported as “not decomposed even after purification by PTLC” and the “Yield (recovery rate) after purification by PTLC, index of stability” value (from here on “Yield (recovery rate) … index of stability”) was found to be 89.1%.

As to `CC(C)CCCCCCC(=O)OCc1ccc(O)cc1` [compound F, 4-hydroxybenzyl 8-methylnonanoate], in data set [1] (5 wt % in liquid paraffin), the “Vasodilatory effect for hairless mouse” value was “Δ”. Also, the “Vasodilating effect” value in data set [1] is reported as “weak vasodilating effect”.

Take `COc1ccc(COC(=O)CCCCCCC(C)C)cc1O` [compound B, Isovanillyl 8-methylnonanoate]: in data set [1] (5 wt % in liquid paraffin), the “Vasodilatory effect for hairless mouse” value is recorded as “∘”. In data set [1], the “Vasodilating effect” value is “strong vasodilating effect”. Also, in data set [2], the “Stability on purification by PTLC” value is given as “not decomposed even after purification by PTLC” and the “Yield (recovery rate) … index of stability” value was 81.0%.

On to `CC(C)CCCCCCC(=O)OCc1ccc2c(c1)OCO2` [compound A, Piperonyl 8-methylnonanoate], for which, in data set [1] (5 wt % in liquid paraffin), the “Vasodilatory effect for hairless mouse” value was “Δ”. For the same compound, the “Vasodilating effect” value in data set [1] is given as “weak vasodilating effect”. In data set [2], the “Stability on purification by PTLC” value was “stabler than vanillyl decanoate even upon contact with silica gel” and the “Yield (recovery rate) … index of stability” value worked out at 84.3%.

Consider `COc1cc(COC(=O)CCCCCCC(C)C)ccc1OC(C)=O` [compound G, 4-acetoxy-3-methoxybenzyl 8-methylnonanoate], for which the “Vasodilatory effect for hairless mouse” value in data set [1] (5 wt % in liquid paraffin) is given as “∘”. In addition, the “Vasodilating effect” value in data set [1] is “strong vasodilating effect”. In data set [2], the “Stability on purification by PTLC” value is on record as “not decomposed even after purification by PTLC”; the “Yield (recovery rate) … index of stability” value is 82.9% and 85.7%.

Take `CC(C)CCCCC(=O)OCc1ccc2c(c1)OCO2` [compound A-2, Piperonyl 6-methylheptanoate]: the “Vasodilatory effect for hairless mouse” value in data set [1] (5 wt % in ethanol) and in data set [1] (5 wt % in liquid paraffin) was “x” throughout. In data set [1], the “Vasodilating effect” value is on record as “did not show a vasodilating effect”.

For the compound `COc1cc(COC(=O)CCCCCC(C)C)ccc1O` [nordihydrocapsiate, 4-hydroxy-3-methoxybenzyl 7-methyl-octanoate, reference compound], the results for the “Vasodilatory effect for hairless mouse” value in data set [1] (1 wt % in liquid paraffin) and in data set [1] (5 wt % in liquid paraffin) were “Δ” and “∘”, respectively.

Consider `CC(C)CCCCCC(=O)OCc1ccc2c(c1)OCO2` [compound A-1, Piperonyl 7-methyloctanoate], for which the “Vasodilatory effect for hairless mouse” value in data set [1] (5 wt % in ethanol) and in data set [1] (5 wt % in liquid paraffin) was “x” in each case. In addition, the “Vasodilating effect” value in data set [1] is on record as “did not show a vasodilating effect”.

For the compound `COc1ccc(COC(=O)CCCCCC(C)C)cc1O` [compound B-1, Isovanillyl 7-Methyloctanoate], the “Vasodilatory effect for hairless mouse” value in data set [1] (5 wt % in liquid paraffin) is recorded as “Δ”. Further, in data set [1], the “Vasodilating effect” value was “weak vasodilating effect”.

As for `CCOc1cc(COC(=O)CCCCCCC(C)C)ccc1O` [compound H, 3-ethoxy-4-hydroxybenzyl 8-methylnonanoate], the “Vasodilatory effect for hairless mouse” value in data set [1] (5 wt % in liquid paraffin) was “∘”. Further, the “Vasodilating effect” value in data set [1] is given as “clear vasodilating effect, though the expression of the effect was slow”.

Turning to `COc1cc(CO)ccc1O` [vanillyl alcohol, reference compound], the “Vasodilatory effect for hairless mouse” value in data set [1] (5 wt % in ethanol) and in data set [1] (5 wt % in liquid paraffin) was “x” each time.

Take `COc1cc(COC(=O)CCCC/C=C/C(C)C)ccc1OC(C)=O` [compound G-1, 4-acetoxy-3-methoxybenzyl (E)-8-methyl-6-nonenoate]: the “Vasodilatory effect for hairless mouse” value in data set [1] (5 wt % in liquid paraffin) is given as “∘”. In data set [1], the “Vasodilating effect” value is given as “strong vasodilating effect”.

For the compound `COc1cc(CNC(=O)CCCC/C=C/C(C)C)ccc1O` [capsaicin, reference compound], the “Vasodilatory effect for hairless mouse” value in data set [1] (1 wt % in liquid paraffin), in data set [1] (5 wt % in ethanol) and in data set [1] (5 wt % in liquid paraffin) was “∘” throughout.

In the case of `CCCCCCCCCC(=O)OCc1ccc(O)c(OC)c1` [vanillyl decanoate, reference compound], in data set [2], the “Stability on purification by PTLC” value is recorded as “decomposed by the contact with silica gel” and the “Yield (recovery rate) … index of stability” value is reported as 43.1%.

As to `COc1ccc(COC(=O)CCCCCCC(C)C)cc1` [compound C, 4-methoxybenzyl 8-methylnonanoate], the “Vasodilatory effect for hairless mouse” value in data set [1] (5 wt % in liquid paraffin) is given as “∘”. Besides, the “Vasodilating effect” value in data set [1] is listed as “strong vasodilating effect”. In data set [2], the “Stability on purification by PTLC” value is listed as “not decomposed even after purification by PTLC” and the “Yield (recovery rate) … index of stability” value is given as 90.2%.

(Values after patent US7981460B2, “Substituted benzyl ester derivative and use thereof” (Ajinomoto Co., Inc., priority 2006, dated 2011).)
